Experiment [1] relates to yeast and aspergillus species. As to the kind of experiment: Minimum Inhibitory Concentration (MIC) assay, yeast and filamentous fungi. In kind it is cell-based, Candida albicans; Aspergillus fumigatus. Conditions: antifungal; complete inhibition of visible growth, 48 h at 35 C. As to the method:
(§1) These assays are adapted from NCCLS protocols M7-A4 and M27-A (NCCLS vol 17:9 and vol 17:2) as modified by Sandven, S. Clin. Micro. (1999) 37:12, p. 3856–3859. MIC values for Aspergillus fumigatus were determined using NCCLS protocol M38-P.
(§2) All compounds were dissolved in 100% DMSO to a stock concentration of 10 mM and use fresh or stored at −80° C. Stock compounds were kept frozen until needed and used freshly with no more then one freeze-thaw cycle. When used for test purposes, compounds were diluted in the appropriate media depending on the organism being tested.
(§3) For yeast and aspergillus species, seven 1:2 serial dilutions of compound in appropriate media buffered with MOPS at pH 7.0 were prepared such that the final starting test compound concentrations were 50.0 uM for yeast and 50 uM aspergillus species. For bacteria, dilutions were made in growth media used for the particular bacteria being tested.
Five well-separated colonies from a 24 hr Sabouraud Dextrose plate incubated at 35 C were picked and resuspended into 5.0 ml of normal saline. The O.D.530 was read and the culture was adjusted to 0.5 McFarland units with normal saline. A 1:2000 dilution was made with RPMI 1640 media buffered with MOPS at pH 7.0 and 100 μL of this inoculum preparation was added to an equal volume of test compound-containing media. 25 μL of the redox indicator Alamar Blue (Biosource International) was added to each well and the plates were incubated for 48 h at 35 C. Wells having yeast growth changed color from blue to pink.
Inoculums are made by incubating Aspergillus fumigatus for 7 days at 35 C on potato dextrose agar slants. Slants are then covered with 1.0 ml of 0.85% saline, one drop of Tween 20 is added and colonies are teased with a sterile transfer loop to create a suspension which is allowed to sit for 5 min so heavier particles can drop out. The upper suspension is separated and adjusted to an optical density of 0.09 to 0.11. The resulting suspension is diluted 1:50 which yields 2× the final inoculum needed. Micro dilution trays are prepared as with yeast and incubated for 48 h at 35 C. For our purposes the MIC is defined as the lowest compound concentration at which no visible growth is observed after 48 h.

A further experiment deals with bacteria. As to the kind of experiment: Minimum Inhibitory Concentration (MIC) assay, bacteria. Format: cell-based. Conditions: antibacterial; complete inhibition of visible growth. The protocol: as §1, §2, §3
Inoculums are made in the same manner as yeast except all dilutions are made in normal saline, with a final dilution of 1:200 and an inoculum of 10 μL.

Bounds are passed on as bounds.

With `N=C(N)CNC(=O)c1cc(NC(=O)c2cnc(C(=O)Nc3cc(C(=O)NCC(=N)N)n(CC4CC4)c3)cn2)cn1CC1CC1` [Compound 293, Pyrazine-2,5-dicarboxylic acid bis-{[5-(carbamimidoylmethyl-carbamoyl)-1-cyclopropylmethyl-1H-pyrrol-3-yl]-amide}], the MIC (in experiment [1]; in the experiment with bacteria) was less than 45.5 µM in each case.

As to `N=C(N)CNC(=O)c1cc(NC(=O)C2=CC=C(C(=O)Nc3cc(C(=O)NCC(=N)N)n(CC4CC4)c3)CC2)cn1CC1CC1` [Compound 294, Cyclohexa-1,3-diene-1,4-dicarboxylic acid bis-{[5-(carbamimidoylmethyl-carbamoyl)-1-cyclopropylmethyl-1H-pyrrol-3-yl]-amide}], the MIC (in experiment [1]; against bacteria) was less than 45.5 µM each time.

Take `CCCCn1cc(NC(=O)c2ccc(C(=O)Nc3cc(C(=O)NCC(=N)NC)n(CCCC)c3)cc2)cc1C(=O)NCC(=N)NC` [Compound 289, N,N′-Bis-[1-butyl-5-(methylcarbamimidoylmethyl-carbamoyl)-1H-pyrrol-3-yl]terephthalamide]: the MIC (in experiment [1]; in the experiment on bacteria) was less than 45.5 µM throughout.

Consider `N=C(N)CNC(=O)c1cc(NC(=O)c2ccc(C(=O)Nc3cc(C(=O)NCC(=N)N)n(CC4CC4)c3)nc2)cn1CC1CC1` [Compound 292, Pyridine-2,5-dicarboxylic acid bis{[5-(carbamimidoylmethyl-carbamoyl)-1-cyclopropylmethyl-1H-pyrrol-3-yl]-amide}], for which the MIC (in experiment [1]; in the experiment on bacteria) was less than 45.5 µM in each case.

For `N=C(N)CNC(=O)c1cc(NC(=O)c2ccc(C(=O)Nc3cc(C(=O)NCC(=N)N)n(CC4CC4)c3)cc2)cn1CC1CC1` [Compound 284, N,N′-Bis-[5-(carbamimidoylmethylcarbamoyl)-1-cyclopropylmethyl-1H-pyrrol-3-yl]-terephthalamide], the MIC (in experiment [1]; against bacteria) was less than 45.5 µM throughout.

On to `N=C(N)CNC(=O)c1cc(NC(=O)c2cc(C(=O)Nc3cc(C(=O)NCC(=N)N)n(CC4CC4)c3)[nH]n2)cn1CC1CC1` [Compound 295, 1H-Pyrazole-3,5-dicarboxylic acid bis-{[5-(carbamimidoylmethyl-carbamoyl)-1-cyclopropylmethyl-1H-pyrrol-3-yl]-amide}], for which the MIC (in experiment [1]; against bacteria) was less than 45.5 µM throughout.

As for `CCCCn1cc(NC(=O)c2ccc(C(=O)Nc3cc(C(=O)NCC(=N)NCC)n(CCCC)c3)cc2)cc1C(=O)NCC(=N)NCC` [Compound 290, N,N′-Bis-[1-butyl-5-(ethylcarbamimidoylmethyl-carbamoyl)-1H-pyrrol-3-yl]terephthalamide], the MIC (in experiment [1]; against bacteria) was less than 45.5 µM throughout.

As to `CCCCn1cc(NC(=O)c2ccc(C(=O)Nc3cc(C(=O)NCC(=N)N)n(CCCC)c3)cc2)cc1C(=O)NCC(=N)N` [Compound 287, N,N′-Bis-[1-butyl-5-(carbamimidoylmethyl-carbamoyl)-1H-pyrrol-3-yl]terephthalamide], the MIC (in experiment [1]; against bacteria) was less than 45.5 µM in each case.

Source of the values: patent US7064218B2, “Aromatic compounds and poly(oxyalkylene) containing aromatic compounds possessing antibacterial, antifungal or antitumor activity” (Genelabs Technologies, Inc., priority 2001, dated 2006).
